Laboratory results: publication PMC12070228, “Investigations of Enteric-Coated Tablet Propyl Gallate-Induced Nephrotoxicity in Beagles as well as Human and Dog Renal Proximal Tubule Epithelial Cells” (ACS Pharmacology & Translational Science, 2025)

Tests used:
dog RPTECs = test: GSH-Glo glutathione assay; type: cell-based; conditions: ~48 h, high concentrations
Protocol: (§1) Frozen RPTECs vials were removed from liquid nitrogen storage and placed in a 37 °C water bath until the contents were completely thawed. The cells were gently resuspended and dispensed into a cell culture flask at a seeding density of ∼7500 cells/cm^2. The flask was placed in a 37 °C, 5% CO2 incubator. Cell cultures were given fresh medium the following morning and then every other day until the cell culture was approximately 90% confluent. When the cell culture was 90% confluent, medium was removed and the cells were rinsed with warmed PBS. Cells were harvested and split into new flasks based on a cell density of 7500 cells/cm^2. Cells were incubated at 37 °C for 3 days, with fresh medium added each day. Cells were harvested and diluted with growth medium to a density of 200,000 cells/mL. 100 μL of cell suspension per well (20,000 cells/well) was added to a clear-bottom 96-well microplate for luminescence assays. The plated cells were incubated in the 37 °C incubator for 3 days.
(§2) Each test compound (PG, GA, 4OMPG and 4OMGA) was initially reconstituted using DMSO at a concentration of 250 mg/mL. Serial dilutions of each compound were performed to reach concentrations of 4000 μM, 2000 μM, 1000 μM, 500 μM, 250 μM, 125 μM, 62.5 μM, 31.3 μM using warmed fresh supplemented medium with 0.4% (v/v) DMSO for all concentration levels. 100 μL of media containing the compound solution was added to the cells. Final concentrations of the compounds were 2000 μM, 1000 μM, 500 μM, 250 μM, 125 μM, 62.5 μM, 31.3 μM, 15.7 μM. AZ13599185 (tubulysin, 100 or 500 ng/mL) or cisplatin (30 μg/mL) and buthionine sulfoximine (BSO, 200 μM) were used as positive controls for CTG and GSH assays, respectively. 0.2% (v/v) DMSO in medium was used as the control for both assays, corrsponding to the final cocnetration of DMSO in the well. Three replicates for each compound at each concentration were prepared. Six replicates of positive or negative controls were prepared. Cells were incubated at 37 °C for approximately 48 h.
(§3) Cell media were removed and cells were washed twice with 200 μL of PBS buffer per well. CTG and GSH assay reagents were added to the wells and the assays were performed following the protocols of the Promega assay kits. Briefly, to perform the CTG assay, 100 μL of CTG solution was added into each well. The plate was gently shaken and incubated in the dark for 30 min and luminescence was measured using a PerkinElmer VICTOR X3 plate reader. To perform the GSH assay, luciferin-NT substrate and glutathione S-transferase were mixed into the GSH-GLo solution. 100 μL of the mixed solution was added into each well. The plate was gently shaken and incubated in the dark for at least 30 min. 100 μL of Luciferin Detection Reagent was added per well. The plate was gently shaken and incubated in the dark for at least 15 min. Luminescence was measured using a PerkinElmer VICTOR X3 plate reader.
(§4) For cell-based assays, data was normalized to the negative control. Cell viability and GSH level were expressed as Cell viability or GSH level=Luminescence(each well)/Luminescence(average of DMSO negative control)

human RPTECs = test: GSH-Glo glutathione assay; type: cell-based; conditions: ~48 h, high concentrations
Protocol: as §1, §2, §3, §4

[1] = no reference given; cited from earlier work
[2] = Exposure comparison of PG and phase-I and phase-II metabolites in dog and human plasma; conditions: oral EC MEDI7219 tablets; samples through 8 h; human PG 800 mg (N = 8), dog PG 200 mg/kg/day (N = 6)
Protocol: Dog blood was collected via jugular vein in potassium (K2) EDTA tubes and processed to plasma. Samples were centrifuged at approximately 3000 rpm for 5 min at approximately 4 °C within 30 min of collection. Plasma samples were acidified with 1% (v/v) formic acid (FA) to avoid degradation of PG and metabolites in plasma within 20 min of the start of centrifugation and then stored frozen (≤-60 °C). Acidified plasma was extracted using internal standard-spiked solution (100 mM ammonium bicarbonate: acetonitrile = 1:4). Samples were then centrifuged to collect supernatant, followed by drying to completion. The dried samples were reconstituted with 200 uL of 0.1% (v/v) formic acid in water. Samples were vortexed and centrifuged before injection. In order to assess potential impact of hemolysis on qualification of PG and its metabolites, hemolyzed plasma was prepared by spiking fully hemolyzed whole blood at an indicated percentage into plasma.
Separations were conducted on a reversed-phase column (Phenomenex, Kinetex F5, 2.6 μm 100 Å, 100 × 4.6 mm) at a flow rate of 0.7 mL/min at 40 °C. Mobile phase A was 0.1% formic acid in water and mobile phase B was 0.1% formic acid in methanol. The samples were analyzed on a SCIEX 6500+ QTRAP under negative ESI mode. The total run time was 5.5 min. Eight calibration standards and three quality control (LQC, MQC and HQC) samples were used for quantification.
The primary metabolites of PG were measured in dog and human plasma following oral administration of EC MEDI7219 tablets to examine a potential mechanism of the PG-mediated renal toxicity in dog and its possible translatability to humans. Plasma concentrations of PG, its phase-I metabolites GA and 4OMGA and phase-II glucuronide and glutathione conjugates were measured. The human and dog samples, collected through 8 h after administration, were analyzed and the results were compared (Figure , Figure S5). Based on allometric scaling method the highest daily dose administered in humans was approximately 8-fold less compared with the dose level tested in dogs.
Human (H) data is in black. Dog (D) data is in red (study 002). Concentration (mM) is in log10 scale. Data was normalized to PG dose (mg/kg/day). N = 8 for human (PG dosed at 800 mg with MEDI7219 tablets). N = 6 for dogs (PG dosed at 200 mg/kg/day). Below LLOQ values were set to 1/2 LLOQ for the calculation.

urine NGAL = conditions: dog, in vivo
Protocol: In the first investigative 4-week study (study 002), dogs received EC tablets consisting of different combinations of the clinical formulation excipients (Table ) with or without PG once daily for 27 days. For groups receiving tablets with PG, each EC tablet contained 100 mg PG; the number of tablets administered each day (13–20 placed in size 12 gelatin capsules) was adjusted based on the most recent body weight to yield a target PG dose level of 200 mg/kg/day. Scheduled necropsies of all surviving animals were conducted on day 28 of the dosing phase. Samples for PG toxicokinetics were collected on days 1, 14, 21, and 25 of the dosing-phase. On days 1, 14, and 21 samples were collected: predose and approximately 1, 2, 3, 4, 6, 8, 12, and 24 h postdose. Days 25: predose and approximately 1, 2, 3, 4, 6, 8, 10, and 24 h postdose. […] NGAL was measured using an ELISA method and normalized to urine creatinine. Blood samples for standard clinical chemistry parameters, including creatinine and urea nitrogen, were collected from fasted dogs twice prior to the predose phase and before daily dose administration on Days 7, 14, and 21 of the dosing phase, as well as on the day of scheduled necropsy; samples were measured on a clinical chemistry analyzer using a validated method.

Structure (SMILES)	GSH levels at high concentrations (human RPTECs)	Plasma exposure, humans compared with dogs [2]	also measured
O=C(O)c1cc(O)c(O)c(O)c1 [GA, Gallic acid]	reduction of GSH levels	comparable between the two species	GSH levels at high concentrations (dog RPTECs): reduction of GSH levels; Log P [1]: 0.91
O=C(O)c1cc(O)c(O)c(OC2OC(C(=O)O)C(O)C(O)C2O)c1 (centres unmarked) [GA-3-Gluc, gallic acid-3-glucoronide]		lower exposure	
COc1c(O)cc(C(=O)O)cc1O [Group 4OMGA, 4-O-methyl gallic acid]		comparable between the two species	
CCCOC(=O)c1cc(O)c(OC)c(O)c1 [Group 4OMPG, 4-O-methyl propyl gallate, reference compound]	increases of GSH		
C[C@H](CCC(=O)[O-])[C@H]1CC[C@H]2[C@@H]3[C@H](O)C[C@@H]4C[C@H](O)CC[C@]4(C)[C@H]3CC[C@]12C.[Na+] [NaCDC, sodium chenodeoxycholate]			Urine NGAL levels (urine NGAL): did not induce elevations in NGAL levels
